Assay results from patent US20230398211A1, “Liposomes Containing TLR4 Agonist, Preparation and Uses Thereof” (priority 2020, published 2023).

Experiments:
[1] = Alcohol solubility of E6020 and MPL in ethanol by nephelometry
Procedure: The appearance and increase of opalescence, indicative of insolubility was followed by nephelometry.
RNU (Relative nephelometry Unit) of each solution was recorded and plotted on a graph.

sheep red blood cells = assay: Hemolysis assay; format: cell-based; settings: 30 minutes at 37° C.
Procedure: Before use, red blood cells (Sheep red blood cells 10%, Rockland, ref R405-0050, lot BP30202 (stored+4° C.) were washed in cold PBS. Five mL of sheep red blood cells were transferred into a 15 mL Falcon tube and 7 mL of cold PBS were added. Cells were centrifuged for 10 min 700 g at 4° C. Supernatant was carefully removed and cell pellet was suspended in 12 mL of cold PBS. Then, cell suspension was centrifuged for 10 min, 700 g at 4° C. The cell suspension and centrifugation steps were repeated twice. Finally, cells were suspended in PBS in a final volume of 5 mL ready-to-use.
In a round bottom P96 plate, 100 μL per well of PBS were added. Then, 100 μL per well of saponin QS21 or QS7 solutions were added in serial 2-fold dilutions (1.6 μM to 200 μM-) in a citrate buffer (Citrate 10 mM, NaCl 140 mM, pH 6.3). […]
Twenty-five μL/well of 10% red blood cell solution were added, and the plates were incubated for 30 minutes at 37° C. and then were centrifuged for 5 min 700 g at room temperature. Eighty μL per well of surnageant were collected and transfered to a flat bottom plate for spectrophotometer reading (OD 540 nm). The percentage of cell hemolysis is calculated for each saponin concentration tested in μM according to the formula: 100×[(sample absorbance−negative control absorbance)[…](positive control absorbance−negative control absorbance)]. […]

| Substance | appearance of ethanol solution (opalescence) ([1]; 0.5, 1.0, 2.0 and 10 mg/ml in absolute ethanol, mixed 3h at room temperature) | solubility in ethanol ([1]; absolute ethanol, room temperature (about 25° C.), nephelometry) | EC50 (sheep red blood cells; read-out: effective concentration inducing hemolysis of 50% red blood cells (EC50)) [µM] | erythrocyte hemolysis (sheep red blood cells; from 25 μM to 100 μM) [%] |
| --- | --- | --- | --- | --- |
| 3-O-desacyl-4′-monophosphoryl lipid A [MPL] | opalescent even at the lowest concentration tested | very low solubility |  |  |
| QS21 |  |  | 4.2 | 100 |
